# Test results as given in paper PMC5218480 (PLoS ONE, 2017).
# Tested on: MV-4-11 cells
# Assay: Gene expression microarray analysis (Affymetrix PrimeView) and GSEA
# Assay type: cell-based, human
# Parameters: RFU PODN (11730768_x_at) / Fold change /veh PODN (11730768_x_at) / RFU LINC00158 (11744669_a_at) / Fold change /veh LINC00158 (11744669_a_at) / RFU DUSP10 (11751237_a_at) / Fold change /veh DUSP10 (11751237_a_at) / RFU ID3 (11757404_x_at) / Fold change /veh ID3 (11757404_x_at) / RFU PLEKHG5 (11737974_s_at) / Fold change /veh PLEKHG5 (11737974_s_at) / RFU LRRC4B (11730491_at) / Fold change /veh LRRC4B (11730491_at) / RFU GIMAP4 (11747438_a_at) / Fold change /veh GIMAP4 (11747438_a_at) / RFU KRT8 (11758183_x_at) / Fold change /veh KRT8 (11758183_x_at) / RFU CNN1 (11734310_a_at) / Fold change /veh CNN1 (11734310_a_at) / RFU VPS37D (11726825_at) / Fold change /veh VPS37D (11726825_at) / RFU C10orf10 (11716522_x_at) / Fold change /veh C10orf10 (11716522_x_at) / RFU KIR2DL2 /// KIR2DL4 /// KIR2DL5A /// KIR2DL5B /// KIR2DS1 /// KIR2DS2 /// KIR2DS3 /// KIR2DS4 /// KIR3DL3 /// KIR3DL3 /// KIR3DS1 (11738374_at) / Fold change /veh KIR2DL2 /// KIR2DL4 /// KIR2DL5A /// KIR2DL5B /// KIR2DS1 /// KIR2DS2 /// KIR2DS3 /// KIR2DS4 /// KIR3DL3 /// KIR3DL3 /// KIR3DS1 (11738374_at) / RFU C1QL1 (11718748_at) / Fold change /veh C1QL1 (11718748_at) / RFU TMPRSS4 (11747572_a_at) / Fold change /veh TMPRSS4 (11747572_a_at) / RFU HAMP (11756126_x_at) / Fold change /veh HAMP (11756126_x_at) / RFU RNFT2 (11725882_a_at) / Fold change /veh RNFT2 (11725882_a_at) / RFU NR4A2 (11747474_a_at) / Fold change /veh NR4A2 (11747474_a_at) / RFU ABCC12 (11746883_a_at) / Fold change /veh ABCC12 (11746883_a_at) / RFU TMEM136 (11760407_x_at) / Fold change /veh TMEM136 (11760407_x_at) / RFU CLDN22 /// WWC2 (11732394_at) / Fold change /veh CLDN22 /// WWC2 (11732394_at) / RFU HLA-DPB1 (11760878_x_at) / Fold change /veh HLA-DPB1 (11760878_x_at) / RFU SPINT1 (11716480_a_at) / Fold change /veh SPINT1 (11716480_a_at) / RFU GAP43 (11754022_s_at) / Fold change /veh GAP43 (11754022_s_at) / RFU A4GNT (11735810_at) / Fold change /veh A4GNT (11735810_at) / RFU PRB3 (11715151_x_at) / Fold change /veh PRB3 (11715151_x_at) / RFU TUBB4B (11761932_at) / Fold change /veh TUBB4B (11761932_at) / RFU CAPN14 (11732068_a_at) / Fold change /veh CAPN14 (11732068_a_at) / RFU TMCC2 (11721928_a_at) / Fold change /veh TMCC2 (11721928_a_at) / RFU IRGQ (11745062_a_at) / Fold change /veh IRGQ (11745062_a_at) / RFU FAM174B (11720279_a_at) / Fold change /veh FAM174B (11720279_a_at) / RFU TMPRSS4 (11748680_a_at) / Fold change /veh TMPRSS4 (11748680_a_at) / RFU FAM212B (11763350_a_at) / Fold change /veh FAM212B (11763350_a_at) / RFU PLEKHG5 (11743358_a_at) / Fold change /veh PLEKHG5 (11743358_a_at) / RFU ZSCAN30 (11745921_a_at) / Fold change /veh ZSCAN30 (11745921_a_at) / RFU CMKLR1 (11741424_a_at) / Fold change /veh CMKLR1 (11741424_a_at) / RFU LOC101060620 /// MAPK8IP1 (11723275_at) / Fold change /veh LOC101060620 /// MAPK8IP1 (11723275_at) / RFU SPTSSB (11747773_x_at) / Fold change /veh SPTSSB (11747773_x_at) / RFU PRSS12 (11739890_at) / Fold change /veh PRSS12 (11739890_at) / RFU BIN1 (11741810_x_at) / Fold change /veh BIN1 (11741810_x_at) / RFU WNT11 (11732464_a_at) / Fold change /veh WNT11 (11732464_a_at) / RFU C10orf10 (11716521_a_at) / Fold change /veh C10orf10 (11716521_a_at) / RFU C5orf56 (11738089_at) / Fold change /veh C5orf56 (11738089_at) / RFU CYB561 (11721691_x_at) / Fold change /veh CYB561 (11721691_x_at) / RFU ANKRD19P (11752326_a_at) / Fold change /veh ANKRD19P (11752326_a_at) / RFU OR2T12 /// OR2T33 /// OR2T8 (11738714_s_at) / Fold change /veh OR2T12 /// OR2T33 /// OR2T8 (11738714_s_at) / RFU VCAN (11748164_a_at) / Fold change /veh VCAN (11748164_a_at) / RFU JSRP1 (11732532_at) / Fold change /veh JSRP1 (11732532_at) / RFU KRTAP10-11 (11738290_x_at) / Fold change /veh KRTAP10-11 (11738290_x_at) / RFU MYO3A (11730013_a_at) / Fold change /veh MYO3A (11730013_a_at) / RFU EBF3 (11725865_a_at) / Fold change /veh EBF3 (11725865_a_at) / RFU CAMK2N1 (11719241_x_at) / Fold change /veh CAMK2N1 (11719241_x_at) / RFU C5orf56 (11738088_a_at) / Fold change /veh C5orf56 (11738088_a_at) / RFU OLFML3 (11715873_a_at) / Fold change /veh OLFML3 (11715873_a_at) / RFU LOC100653217 /// NTM (11731650_a_at) / Fold change /veh LOC100653217 /// NTM (11731650_a_at) / RFU MAPK11 (11762145_a_at) / Fold change /veh MAPK11 (11762145_a_at) / RFU FIZ1 (11724087_x_at) / Fold change /veh FIZ1 (11724087_x_at) / RFU OASL (11726364_x_at) / Fold change /veh OASL (11726364_x_at) / RFU SOX15 (11748057_x_at) / Fold change /veh SOX15 (11748057_x_at) / RFU CD79A (11719716_a_at) / Fold change /veh CD79A (11719716_a_at) / RFU HIST1H1D (11736915_at) / Fold change /veh HIST1H1D (11736915_at) / RFU CASKIN2 (11723855_a_at) / Fold change /veh CASKIN2 (11723855_a_at) / RFU LOC730098 (11760151_x_at) / Fold change /veh LOC730098 (11760151_x_at) / RFU OR4N2 (11742367_at) / Fold change /veh OR4N2 (11742367_at) / RFU PRRT2 (11749266_a_at) / Fold change /veh PRRT2 (11749266_a_at) / RFU SNX32 (11753110_a_at) / Fold change /veh SNX32 (11753110_a_at) / RFU CDHR5 (11726645_a_at) / Fold change /veh CDHR5 (11726645_a_at) / RFU RCAN1 (11760418_a_at) / Fold change /veh RCAN1 (11760418_a_at) / RFU FAM167A (11723789_a_at) / Fold change /veh FAM167A (11723789_a_at) / RFU FAM26E (11764081_at) / Fold change /veh FAM26E (11764081_at) / RFU ISYNA1 (11749810_s_at) / Fold change /veh ISYNA1 (11749810_s_at) / RFU ACY1 (11761880_at) / Fold change /veh ACY1 (11761880_at) / RFU 11764098_at / Fold change /veh 11764098_at / RFU SAMD14 (11745864_x_at) / Fold change /veh SAMD14 (11745864_x_at) / RFU NPB (11741838_a_at) / Fold change /veh NPB (11741838_a_at) / RFU TMPRSS6 (11731388_a_at) / Fold change /veh TMPRSS6 (11731388_a_at) / RFU KRTAP10-2 (11738614_at) / Fold change /veh KRTAP10-2 (11738614_at) / RFU ARHGAP8 /// PRR5-ARHGAP8 (11727945_x_at) / Fold change /veh ARHGAP8 /// PRR5-ARHGAP8 (11727945_x_at) / RFU KRTAP5-7 /// NADSYN1 (11734609_at) / Fold change /veh KRTAP5-7 /// NADSYN1 (11734609_at) / RFU RASL12 (11751679_a_at) / Fold change /veh RASL12 (11751679_a_at) / RFU CDKN2B (11736163_a_at) / Fold change /veh CDKN2B (11736163_a_at) / RFU PRF1 (11729649_at) / Fold change /veh PRF1 (11729649_at) / RFU, ZNF638 /// ZNF638-IT1 / Fold change vs veh, ZNF638 /// ZNF638-IT1 / RFU, PANK3 / Fold change vs veh, PANK3 / RFU, SH3YL1 / Fold change vs veh, SH3YL1 / RFU, ZEB2 / Fold change vs veh, ZEB2 / RFU, NRIP1 / Fold change vs veh, NRIP1 / RFU, PTTG1IP / Fold change vs veh, PTTG1IP / RFU, CAPN2 / Fold change vs veh, CAPN2 / RFU, MED14 / Fold change vs veh, MED14 / RFU, SNORA58 / Fold change vs veh, SNORA58 / RFU, C1orf63 / Fold change vs veh, C1orf63 / RFU, LRRFIP1 / Fold change vs veh, LRRFIP1 / RFU, NDUFAF7 / Fold change vs veh, NDUFAF7 / RFU, SLC12A2 / Fold change vs veh, SLC12A2 / RFU, IBTK / Fold change vs veh, IBTK / RFU, ESF1 / Fold change vs veh, ESF1 / Fold change vs veh, TMEM50B / RFU, TAOK1 / Fold change vs veh, TAOK1 / RFU, ACBD3 / Fold change vs veh, ACBD3 / RFU, TMA16 / Fold change vs veh, TMA16 / RFU, RWDD3 / Fold change vs veh, RWDD3 / RFU, BCAT1 / Fold change vs veh, BCAT1 / RFU, EDEM3 / Fold change vs veh, EDEM3 / RFU, TMEM33 / Fold change vs veh, TMEM33 / RFU, WDR75 / Fold change vs veh, WDR75 / RFU, AHCTF1 / Fold change vs veh, AHCTF1 / RFU, TFRC / Fold change vs veh, TFRC / RFU, ZDHHC17 / Fold change vs veh, ZDHHC17 / RFU, NOM1 / Fold change vs veh, NOM1 / RFU, ARL8B / Fold change vs veh, ARL8B / RFU, ZBTB11 / Fold change vs veh, ZBTB11 / RFU, TAMM41 / Fold change vs veh, TAMM41 / RFU, KIAA1704 /// LOC100996395 / Fold change vs veh, KIAA1704 /// LOC100996395 / RFU, ING1 / Fold change vs veh, ING1 / RFU, TRMT61B / Fold change vs veh, TRMT61B / RFU, FUBP3 / Fold change vs veh, FUBP3 / RFU, TP53 / Fold change vs veh, TP53 / RFU, TNKS2 / Fold change vs veh, TNKS2 / RFU, ZFP14 / Fold change vs veh, ZFP14 / RFU, ACTR2 / Fold change vs veh, ACTR2 / RFU, PPP3R1 / Fold change vs veh, PPP3R1 / RFU, PIK3R1 / Fold change vs veh, PIK3R1 / RFU, HNRNPA1 / Fold change vs veh, HNRNPA1 / RFU, RNF170 / Fold change vs veh, RNF170 / RFU, ZNF28 / Fold change vs veh, ZNF28 / RFU, RNGTT / Fold change vs veh, RNGTT / RFU, OGT / Fold change vs veh, OGT / RFU, BRD1 / Fold change vs veh, BRD1 / RFU, MARS / Fold change vs veh, MARS / RFU, ZNF655 / Fold change vs veh, ZNF655 / RFU, FAHD1 / Fold change vs veh, FAHD1 / RFU, BDP1 / Fold change vs veh, BDP1 / RFU, LRRCC1 / Fold change vs veh, LRRCC1 / RFU, ARID1A / Fold change vs veh, ARID1A / RFU, ZNF146 / Fold change vs veh, ZNF146 / RFU, ZNF330 / Fold change vs veh, ZNF330 / RFU, GPN3 / Fold change vs veh, GPN3 / RFU, C9orf123 / Fold change vs veh, C9orf123 / RFU, N4BP2L2 / Fold change vs veh, N4BP2L2 / RFU, ARFIP1 / Fold change vs veh, ARFIP1 / RFU, FAM179B / Fold change vs veh, FAM179B / RFU, BCL10 / Fold change vs veh, BCL10 / RFU, UHRF1BP1L / Fold change vs veh, UHRF1BP1L / RFU, BET1 / Fold change vs veh, BET1 / RFU, CNOT2 / Fold change vs veh, CNOT2 / RFU, ZNF268 / Fold change vs veh, ZNF268 / Fold change vs veh, ZNF507 / RFU, DGCR2 / Fold change vs veh, DGCR2 / RFU, WDSUB1 / Fold change vs veh, WDSUB1 / Fold change vs veh, HSP90B1 /// MIR3652 / RFU, ADSS / Fold change vs veh, ADSS / RFU, GK / Fold change vs veh, GK / RFU, ZNF148 / Fold change vs veh, ZNF148 / RFU, TAF9 / Fold change vs veh, TAF9 / RFU, SLC1A5 / Fold change vs veh, SLC1A5 / RFU, SLMO2 / Fold change vs veh, SLMO2 / RFU, ABCC4 / Fold change vs veh, ABCC4 / RFU, LOC101060439 /// RAP1B / Fold change vs veh, LOC101060439 /// RAP1B / RFU, RFX7 / Fold change vs veh, RFX7 / RFU, GTPBP10 / Fold change vs veh, GTPBP10 / RFU, CNEP1R1 / Fold change vs veh, CNEP1R1 / RFU, BIVM-ERCC5 /// ERCC5 / Fold change vs veh, BIVM-ERCC5 /// ERCC5 / RFU, ILF3 / Fold change vs veh, ILF3 / RFU 11762660_at / Fold change /veh 11762660_at / RFU VCAN (11757783_s_at) / Fold change /veh VCAN (11757783_s_at) / RFU DDX43 (11728927_at) / Fold change /veh DDX43 (11728927_at) / RFU KRT8 (11758188_x_at) / Fold change /veh KRT8 (11758188_x_at) / RFU NKD1 (11759106_at) / Fold change /veh NKD1 (11759106_at) / RFU SRD5A1 (11742802_a_at) / Fold change /veh SRD5A1 (11742802_a_at) / RFU TPSAB1 /// TPSB2 (11721975_s_at) / Fold change /veh TPSAB1 /// TPSB2 (11721975_s_at) / RFU GSTM3 (11746129_a_at) / Fold change /veh GSTM3 (11746129_a_at) / RFU IL23R (11737362_x_at) / Fold change /veh IL23R (11737362_x_at) / RFU TMEM51 (11727254_a_at) / Fold change /veh TMEM51 (11727254_a_at) / RFU PIWIL2 (11732686_x_at) / Fold change /veh PIWIL2 (11732686_x_at) / RFU ORM1 (11744905_x_at) / Fold change /veh ORM1 (11744905_x_at) / RFU CCDC152 (11743942_at) / Fold change /veh CCDC152 (11743942_at) / RFU ECM1 (11717891_a_at) / Fold change /veh ECM1 (11717891_a_at) / RFU IL23R (11748794_a_at) / Fold change /veh IL23R (11748794_a_at) / RFU TNFAIP8L3 (11732012_x_at) / Fold change /veh TNFAIP8L3 (11732012_x_at) / RFU MBOAT4 (11741988_at) / Fold change /veh MBOAT4 (11741988_at) / RFU 11764193_at / Fold change /veh 11764193_at / RFU TMEM53 (11763286_at) / Fold change /veh TMEM53 (11763286_at) / RFU MAGEB2 (11727129_at) / Fold change /veh MAGEB2 (11727129_at) / RFU TMEM200A (11744735_a_at) / Fold change /veh TMEM200A (11744735_a_at) / RFU CCDC152 (11751479_a_at) / Fold change /veh CCDC152 (11751479_a_at) / RFU FAM211A (11726209_a_at) / Fold change /veh FAM211A (11726209_a_at) / RFU RGS16 (11746705_a_at) / Fold change /veh RGS16 (11746705_a_at) / RFU VCAN (11755009_s_at) / Fold change /veh VCAN (11755009_s_at) / RFU RHOB (11743442_s_at) / Fold change /veh RHOB (11743442_s_at) / RFU RGS16 (11720943_a_at) / Fold change /veh RGS16 (11720943_a_at) / RFU RGS16 (11720944_at) / Fold change /veh RGS16 (11720944_at) / RFU, VPS4B / Fold change vs veh, VPS4B / RFU, CREB1 / Fold change vs veh, CREB1 / RFU, DNAJC13 / Fold change vs veh, DNAJC13 / RFU, GNAQ / Fold change vs veh, GNAQ / RFU, CDK5R1 / Fold change vs veh, CDK5R1 / RFU, ZRANB3 / Fold change vs veh, ZRANB3 / RFU, CUL4A / Fold change vs veh, CUL4A / RFU, CCNY / Fold change vs veh, CCNY / RFU, UFL1 / Fold change vs veh, UFL1 / RFU, COG3 / Fold change vs veh, COG3 / RFU, DIAPH2 / Fold change vs veh, DIAPH2 / RFU, SKA2 / Fold change vs veh, SKA2 / RFU, AFF3 / Fold change vs veh, AFF3 / RFU, LMF1 / Fold change vs veh, LMF1 / RFU, IPO11 / Fold change vs veh, IPO11 / RFU, DFFB / Fold change vs veh, DFFB / RFU, FOXP1 / Fold change vs veh, FOXP1 / RFU, CARD8 / Fold change vs veh, CARD8 / RFU, STRN3 / Fold change vs veh, STRN3 / RFU, ADK / Fold change vs veh, ADK / RFU, RASSF2 / Fold change vs veh, RASSF2 / RFU, WIPF1 / Fold change vs veh, WIPF1 / RFU, LARP1B / Fold change vs veh, LARP1B / RFU, RASA1 / Fold change vs veh, RASA1 / RFU, RB1 / Fold change vs veh, RB1 / RFU, PPFIA1 / Fold change vs veh, PPFIA1 / RFU, MAT2A / Fold change vs veh, MAT2A / RFU, CCT5 / Fold change vs veh, CCT5 / RFU, WDR92 / Fold change vs veh, WDR92 / RFU, CUX1 / Fold change vs veh, CUX1 / RFU, TTC7A / Fold change vs veh, TTC7A / RFU, TMEM135 / Fold change vs veh, TMEM135 / RFU, DEPTOR / Fold change vs veh, DEPTOR / RFU, CPM / Fold change vs veh, CPM / RFU, DNAJB6 / Fold change vs veh, DNAJB6 / RFU, CACNA2D3 / Fold change vs veh, CACNA2D3 / RFU, DTX4 / Fold change vs veh, DTX4 / RFU, TFCP2 / Fold change vs veh, TFCP2 / RFU, GMCL1 /// GMCL1P1 / Fold change vs veh, GMCL1 /// GMCL1P1 / RFU, AEBP2 / Fold change vs veh, AEBP2 / RFU, SNHG1 /// SNORD22 /// SNORD25 /// SNORD26 /// SNORD27 /// SNORD28 /// SNORD29 /// SNORD31 / Fold change vs veh, SNHG1 /// SNORD22 /// SNORD25 /// SNORD26 /// SNORD27 /// SNORD28 /// SNORD29 /// SNORD31 / Fold change (Aza/veh), C12orf56 (ProbeSet 11735607_a_at) / Fold change (ACY-1035/veh), C12orf56 (ProbeSet 11735607_a_at) / Fold change (Aza/veh), FGFR1OP (ProbeSet 11751329_s_at) / Fold change (ACY-1035/veh), FGFR1OP (ProbeSet 11751329_s_at) / Fold change (Aza/veh), VPS36 (ProbeSet 11739960_a_at) / Fold change (ACY-1035/veh), VPS36 (ProbeSet 11739960_a_at) / RFU SYPL1 (11715823_x_at) / Fold change /veh SYPL1 (11715823_x_at) / RFU IGFBP7 (11715501_s_at) / Fold change /veh IGFBP7 (11715501_s_at) / RFU REEP3 (11722064_at) / Fold change /veh REEP3 (11722064_at) / RFU IGLL1 (11728026_x_at) / Fold change /veh IGLL1 (11728026_x_at): dose or concentration left out as unconfirmed
# Settings: ProbeSet 11725787_a_at; LIST B
smiles,measurement,value
Nc1ccc(-c2cccs2)cc1NC(=O)c1ccc2c(c1)cc(C1CC1)n2CCN1CCOCC1 [ACY-1035],"RFU, TMA16",138.28 RFU
